Measurements reported in ChEMBL document CHEMBL1201862, “PubChem BioAssay data set” (2004).
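Growth conditions: 96-well plates. Treatment: test compound, 48 hours, 5 concentrations. Analysis: linear interpolation between bracketing concentrations; unreached endpoints set to highest concentration. GI50: concentration for 50% inhibition of growth.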 Activity calls are given as the source filed them. No stated cut-off is given here; in the data, active = GI50 up to about 1.1 µM and inactive = higher.

What was measured:
Test in all cases: NCI-60 cell line screen, 48 h
786-0 = test system: 786-0
A498 = test system: A498
A549 = test system: A549
ACHN = test system: ACHN
BT-549 = test system: BT-549
CAKI-1 = test system: CAKI-1
CCRF-CEM = test system: CCRF-CEM
COLO 205 = test system: COLO 205
DU-145 = test system: DU-145
EKVX = test system: EKVX
HCC 2998 = test system: HCC 2998
HCT-116 = test system: HCT-116
HCT-15 = test system: HCT-15
HL-60 = test system: HL-60
HOP-62 = test system: HOP-62
HOP-92 = test system: HOP-92
HT-29 = test system: HT-29
Hs-578T = test system: Hs-578T
IGROV-1 = test system: IGROV-1
K562 = test system: K562
KM12 = test system: KM12
LOX IMVI = test system: LOX IMVI
M14 = test system: M14
MCF7 = test system: MCF7
MDA-MB-231 = test system: MDA-MB-231
MDA-MB-435 = test system: MDA-MB-435
MDA-N = test system: MDA-N
MOLT-4 = test system: MOLT-4
Malme-3M = test system: Malme-3M
NCI-H226 = test system: NCI-H226
NCI-H23 = test system: NCI-H23
NCI-H460 = test system: NCI-H460
NCI-H522 = test system: NCI-H522
NCI/ADR-RES = test system: NCI/ADR-RES
OVCAR-3 = test system: OVCAR-3
OVCAR-4 = test system: OVCAR-4
OVCAR-5 = test system: OVCAR-5
OVCAR-8 = test system: OVCAR-8
PC-3 = test system: PC-3
RPMI-8226 = test system: RPMI-8226
RXF 393 = test system: RXF 393
SF-268 = test system: SF-268
SF-295 = test system: SF-295
SF-539 = test system: SF-539
SK-MEL-28 = test system: SK-MEL-28
SK-MEL-2 = test system: SK-MEL-2
SK-MEL-5 = test system: SK-MEL-5
SK-OV-3 = test system: SK-OV-3
SN12C = test system: SN12C
SNB-19 = test system: SNB-19
SNB-75 = test system: SNB-75
SW-620 = test system: SW-620
T47D = test system: T47D
TK-10 = test system: TK-10
U-251 = test system: U-251
UACC-257 = test system: UACC-257
UACC-62 = test system: UACC-62
UO-31 = test system: UO-31

C=C1C(OC)=C(OC)C(=O)c2[nH]c3c(OC)cc([N+](=O)[O-])cc3c21
GI50 (786-0): 37.8 µM (inactive) | GI50 (A498): > 100 µM (inactive) | GI50 (A549): > 100 µM (inactive) | GI50 (ACHN): > 100 µM (inactive) | GI50 (BT-549): > 100 µM (inactive) | GI50 (CAKI-1): > 100 µM (inactive) | GI50 (CCRF-CEM): > 100 µM (inactive) | GI50 (COLO 205): > 100 µM (inactive) | GI50 (DU-145): > 100 µM (inactive) | GI50 (EKVX): 62.4 µM (inactive) | GI50 (HCC 2998): > 100 µM (inactive) | GI50 (HCT-116): > 100 µM (inactive) | GI50 (HCT-15): > 100 µM | GI50 (HL-60): > 100 µM (inactive) | GI50 (HOP-62): 85.7 µM (inactive) | GI50 (HOP-92): > 100 µM (inactive) | GI50 (HT-29): > 100 µM (inactive) | GI50 (Hs-578T): > 100 µM (inactive) | GI50 (IGROV-1): > 100 µM (inactive) | GI50 (K562): > 100 µM (inactive) | GI50 (KM12): > 100 µM (inactive) | GI50 (LOX IMVI): > 100 µM (inactive) | GI50 (M14): > 100 µM (inactive) | GI50 (MCF7): > 100 µM (inactive) | GI50 (MDA-MB-231): > 100 µM (inactive) | GI50 (MDA-MB-435): > 100 µM (inactive) | GI50 (MDA-N): > 100 µM (inactive) | GI50 (MOLT-4): > 100 µM (inactive) | GI50 (Malme-3M): > 100 µM (inactive) | GI50 (NCI-H226): > 100 µM (inactive) | GI50 (NCI-H23): > 100 µM (inactive) | GI50 (NCI-H460): > 100 µM (inactive) | GI50 (NCI-H522): > 100 µM (inactive) | GI50 (NCI/ADR-RES): > 100 µM (inactive) | GI50 (OVCAR-3): > 100 µM (inactive) | GI50 (OVCAR-4): > 100 µM (inactive) | GI50 (OVCAR-5): > 100 µM (inactive) | GI50 (OVCAR-8): > 100 µM (inactive) | GI50 (PC-3): > 100 µM (inactive) | GI50 (RPMI-8226): > 100 µM (inactive) | GI50 (RXF 393): 37 µM (inactive) | GI50 (SF-268): > 100 µM (inactive) | GI50 (SF-295): > 100 µM (inactive) | GI50 (SF-539): > 100 µM (inactive) | GI50 (SK-MEL-28): > 100 µM (inactive) | GI50 (SK-MEL-2): > 100 µM (inactive) | GI50 (SK-MEL-5): > 100 µM (inactive) | GI50 (SK-OV-3): > 100 µM (inactive) | GI50 (SN12C): > 100 µM (inactive) | GI50 (SNB-19): > 100 µM (inactive) | GI50 (SNB-75): 39.1 µM (inactive) | GI50 (SW-620): > 100 µM (inactive) | GI50 (T47D): > 100 µM (inactive) | GI50 (TK-10): > 100 µM (inactive) | GI50 (U-251): > 100 µM (inactive) | GI50 (UACC-257): > 100 µM (inactive) | GI50 (UACC-62): > 100 µM (inactive) | GI50 (UO-31): > 100 µM (inactive)
